From patent US6462184B2, “Compounds, processes and intermediates for synthesis of mixed backbone oligomeric compounds” (ISIS Pharmaceuticals, Inc., priority 1999, dated 2002)
[PN] = dimethylaminoethyl (DMAE) phosphoramidate internucleoside linkage; e = 2'-O-(2-methoxyethyl) (MOE); d = 2'-deoxy (DNA)

Columns and labels:
c-raf mRNA = c-raf mRNA expression in A549 cells; type: cell-based, human; conditions: between 50-400 nM range
Description: Gapmers designed in this study are based on the parent sequence of ATGCATTCTGCCCCCAAGGA (SEQ ID No:9) which is a uniform deoxy phosphorothioate. This sequence is an antisense oligomeric compound targeted to mouse c-raf. c-raf m-RNA expression assay was carried out according to a reported procedure (Monia et al., Nature Medicinek, 1996, 2, 668). Human A549 lung carcinoma cells were obtained from the American Type Tissue Collection. These were grown in Dulbecco's modified Eagle's medium containing 1 g of glucose/liter (DMEM) and FCS (10%) and routinely passaged when 90-95% confluent.
Assay for Oligonucleoside Inhibition of c-raf Protein Synthesis: A549 cells were plated in 6-well plates (Falcon Labware, Lincoln Park, N.J.) and 24-48 hours later (when 80-90% confluent) treated with 1 μM phorbol 12,13-dibutyrate (PDBu) for 18 hours. This procedure removes greater than 75% of immunoreactive c-rafprotein from the cells. Cells were then washed three times with DMEM (3 mL) (to remove PDBu), and DMEM (1 mL) containing DOTMA/DOPE solution (20 μg/mL, LipofectinR, Bethesda Research Laboratories) was added. Oligonucleoside gapmers were then added to the required concentration (for our initial screen, 1 μM) from a 10 μM stock solution, and the two solutions were mixed by swirling of the dish. The cells were incubated at 37° C. for 4 hours, washed once with DMEM+FCS (10%) to remove the DOTMA/DOPE solution, and then additional DMEM (3 mL)+10% FCS was added and the cells were allowed to recover for another 10 hours. Total RNA is prepared 24 hours after the experiment and analyzed for c-raf and G3PDH mRNA levels after normalization to G3PDH mRNA.

ICAM-1 = ICAM-1 expression in HUVEC cells (flow cytometry); type: cell-based, human
Description: Targeted oligomeric compounds were prepared and assayed using HUVEC cells to determine their ability to inhibit the expression of ICAM-1. HUVEC cells were washed three times with Opti-MEM (Life Technologies, Inc.) that was prewarmed to 37° C. Oligomeric compounds were premixed with Lipofectin (10 μg/mL, Life Technologies, Inc.) in Opti-MEM, serially diluted to the desired concentrations, and applied to washed cells. Basal and untreated (no oligomeric compounds added) control cells were also treated with Lipofectin. Cells were incubated for 4 hours at 37° C., at which time the medium was removed and replaced with standard growth medium with or without TNF-a ([…], R&D Systems). Incubation at 37° C. was continued for different times as indicated below.
A fluorescence-activated cell sorter was used to quantitate ICAM-1 protein expression. The cells were removed from the plate surface by brief trypsinization with trypsin (0.25%) in PBS. Trypsin activity was quenched with a solution of bovine serum albumin (2%) and sodium azide (0.2%) in PBS (+Mg/Ca). […]
Expression of cell surface ICAM-1 was determined by flow cytometry using a Becton Dickinson FACScan. The percentage of ICAM-1 expression in the control was calculated as follows: [(oligomeric compound-treated ICAM-1 value)−(basal ICAM-1 value)/(non-treated ICAM-1 value)−(basal ICAM-1 value))].

Substance | c-raf mRNA expression inhibition (c-raf mRNA) | controlling ICAM-1 expression (ICAM-1; HUVEC cells (printed HWEC), compound synthesized by amidite chemistry and same compound by H-phosphonate chemistry) | inhibiting ICAM-1 expression (ICAM-1; between 3 and 100 nM range, both compounds synthesized from different chemistries)
A*NT*NG* C*A*T*S TSCSTS GSCSCS CSCSC* A*A*G* G*A* (antisense ATGCATTCTGCCCCCAAGGA; sugars from the 5' end e6 d8 e6, linkages [PN]2 o3 s9 o5 (s phosphorothioate, o phosphodiester), methylation of C not given here) [SEQ ID No 10, 2'-MOE gapmer with PN-PO-PS-PO mixed backbone, 20-mer] | dose dependent manner | – | –
A*NT*NG* C*A*T*S TSCSTS GSCSCS CSCSC* A*A*G*N G*NA* (antisense ATGCATTCTGCCCCCAAGGA; 2'-MOE gapmer, mixed PN/PO/PS backbone, chemistry not fully specified) [SEQ ID No 11, 2'-MOE gapmer with PN-PO-PS-PO-PN mixed backbone, 20-mer] | – | efficacious | display dose response
A*T*G* C*A*T*S TSCSTS GSCSCS CSCSC* A*A*G* G*A* (antisense ATGCATTCTGCCCCCAAGGA; 2'-MOE gapmer with mixed PO/PS backbone, marks not given here, further chemistry not given here) [SEQ ID No 9, 2'-MOE gapmer with PO-PS-PO mixed backbone, 20-mer, antisense to c-raf] | dose dependent manner | – | –
T*NT*NT*S GSASCS ASCSGS GSCSAS CSCSAS T*ST*NT*N T* (antisense TTTGACACGGCACCATTTT; sugars from the 5' end e3 d12 e4, linkages [PN]2 s14 [PN]2 (s phosphorothioate, o phosphodiester), methylation of C not given here) [SEQ ID No 4, 2'-MOE gapmer with PN-PS-PN mixed backbone, 19-mer] | dose dependent manner | – | –
